Results as given in patent publication US9695155B2, “Herbicidal substituted pyrimidinyloxy benzene compounds” (E. I. DU PONT DE NEMOURS AND COMPANY, priority 2013, dated 2017).

Columns and labels:
ragweed [1] = test: Test A postemergence; assay type: in vivo, Ambrosia elatior
How it was run: (§1)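 Visual 0–100 rating (100 = complete control) taken about 10 d post-treatment relative to untreated checks. Preemergence: directed soil spray on sown loam/sand pots. Postemergence: seedlings 2–10 cm, 1–2 leaf. Non-phytotoxic solvent formulation with surfactant.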

giant foxtail = test: Test C preemergence; assay type: in vivo, Setaria faberii; conditions: Setaria faberi, pre-emergence
How it was run: (§2)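 Visual ratings on a 0–100 scale (100 = complete control) were made versus untreated controls after 13–15 greenhouse days. Chemicals in a surfactant-containing non-phytotoxic solvent were applied either preemergence to seeds in loam–sand soil or postemergence to 1- to 4-leaf plants 2–18 cm tall.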

pigweed = test: Test C preemergence; assay type: in vivo, Amaranthus retroflexus; conditions: Amaranthus retroflexus, pre-emergence, preemergence, read-out: Pigweed plant response rating
How it was run: as §2

oilseed rape = test: Test C preemergence; assay type: in vivo, Brassica napus; conditions: Brassica napus, pre-emergence, preemergence, read-out: Oilseed Rape plant response rating
How it was run: as §2

large (Lg) crabgrass = test: Test C preemergence; assay type: in vivo, Digitaria sanguinalis; conditions: Digitaria sanguinalis, pre-emergence
How it was run: as §2

kochia [2] = test: Test A postemergence; assay type: in vivo, Kochia scoparia
How it was run: as §1

Italian ryegrass [3] = test: Test A preemergence; assay type: in vivo, Lolium multiflorum; conditions: 0 to 100 scale where 0 is no effect and 100 is complete control
How it was run: as §1

kochia [4] = test: Test A preemergence; assay type: in vivo, Kochia scoparia; conditions: 0 to 100 scale where 0 is no effect and 100 is complete control
How it was run: as §1

velvetleaf = test: Test C preemergence; assay type: in vivo, Abutilon theophrasti; conditions: Abutilon theophrasti, pre-emergence, preemergence, read-out: Velvetleaf plant response rating
How it was run: as §2

johnsongrass = test: Test C preemergence; assay type: in vivo, Sorghum halepense; conditions: Sorghum halepense, pre-emergence, preemergence, read-out: Johnsongrass plant response rating
How it was run: as §2

blackgrass = test: Test C preemergence; assay type: in vivo, Alopecurus myosuroides; conditions: Alopecurus myosuroides, pre-emergence
How it was run: as §2

soybean = test: Test C preemergence; assay type: in vivo, Glycine max; conditions: Glycine max, pre-emergence, preemergence, read-out: Soybean plant response rating
How it was run: as §2

ragweed [5] = test: Test A preemergence; assay type: in vivo, Ambrosia elatior; conditions: 0 to 100 scale where 0 is no effect and 100 is complete control
How it was run: as §1

barnyardgrass = test: Test C preemergence; assay type: in vivo, Echinochloa crus-galli; conditions: Echinochloa crus-galli, pre-emergence
How it was run: as §2

ragweed [6] = test: Test C preemergence; assay type: in vivo, Ambrosia elatior; conditions: Ambrosia artemisiifolia, pre-emergence, preemergence, read-out: Ragweed plant response rating
How it was run: as §2

waterhemp = test: Test C preemergence; assay type: in vivo, Amaranthus rudis; conditions: Amaranthus tuberculatus, pre-emergence, preemergence, read-out: Waterhemp plant response rating
How it was run: as §2

Italian ryegrass [7] = test: Test C preemergence; assay type: in vivo, Lolium multiflorum; conditions: Lolium multiflorum, pre-emergence, preemergence, read-out: Ryegrass, Italian plant response rating
How it was run: as §2

galium = test: Test A postemergence; assay type: in vivo, Galium aparine
How it was run: as §1

wheat, winter = test: Test C preemergence; assay type: in vivo, Triticum aestivum; conditions: Triticum aestivum, pre-emergence, preemergence, read-out: Wheat plant response rating
How it was run: as §2

[8] = 31 g ai/ha, 0 to 100 scale, 0 no effect, 100 complete control
[9] = 125 g ai/ha, 0 to 100 scale where 0 is no effect and 100 is complete control
[10] = 16 g ai/ha, scale 0 to 100 (0 no effect, 100 complete control)
[11] = 62 g ai/ha, scale 0 (no effect) to 100 (complete control)
[12] = 125 g ai/ha, scale 0 (no effect) to 100 (complete control)
[13] = 31 g ai/ha, visual, approximately 10 days

Fc1cccc(Oc2ncc(Cl)cn2)c1-n1cc(C(F)F)nn1 [Compound 141, 5-chloro-2-[2-[4-(difluoromethyl)-1H-1,2,3-triazol-1-yl]-3-fluorophenoxy]pyrimidine]
Plant response rating, Ragweed (ragweed [1]; [8]): 80
Ragweed plant response rating (ragweed [1]; [9]): 100
pest or weed control at 16 g/ha (giant foxtail; 16 g ai/ha, preemergence, scale 0 to 100 (0 no effect, 100 complete control), read-out: Foxtail, Giant plant response rating): 90%
pest or weed control at 62 g/ha (giant foxtail; 62 g ai/ha, preemergence, scale 0 (no effect) to 100 (complete control), read-out: Foxtail, Giant plant response rating): 100%
pest or weed control at 125 g/ha (giant foxtail; 125 g ai/ha, preemergence, scale 0 (no effect) to 100 (complete control), read-out: Foxtail, Giant plant response rating): 100%
pest or weed control at 31 g/ha (giant foxtail; Preemergence, 31 g ai/ha, scale 0 to 100, 0 no effect, 100 complete control, read-out: Plant response rating, Foxtail, Giant): 100%
pest or weed control at 16 g/ha (pigweed; [10]): 100%
pest or weed control at 62 g/ha (pigweed; [11]): 100%
pest or weed control at 125 g/ha (pigweed; [12]): 100%
plant injury at 16 g/ha (oilseed rape; [10]): 100%
plant injury at 62 g/ha (oilseed rape; [11]): 100%
plant injury at 125 g/ha (oilseed rape; [12]): 100%
pest or weed control at 16 g/ha (large (Lg) crabgrass; 16 g ai/ha, preemergence, scale 0 to 100 (0 no effect, 100 complete control), read-out: Crabgrass, Large plant response rating): 100%
pest or weed control at 62 g/ha (large (Lg) crabgrass; 62 g ai/ha, preemergence, scale 0 (no effect) to 100 (complete control), read-out: Crabgrass, Large plant response rating): 100%
pest or weed control at 125 g/ha (large (Lg) crabgrass; 125 g ai/ha, preemergence, scale 0 (no effect) to 100 (complete control), read-out: Crabgrass, Large plant response rating): 100%
pest or weed control at 31 g/ha (large (Lg) crabgrass; Preemergence, 31 g ai/ha, scale 0 to 100, 0 no effect, 100 complete control, read-out: Plant response rating, Crabgrass, Large): 100%
Plant response rating, Kochia (kochia [2]; [8]): 100
Kochia plant response rating (kochia [2]; [9]): 100
Plant response rating, Ryegrass, Italian (Italian ryegrass [3]; [13]): 30
Plant response rating, Ryegrass, Italian (Italian ryegrass [3]; 125 g ai/ha): 80
Plant response rating, Kochia (kochia [4]; [13]): 100
Plant response rating, Kochia (kochia [4]; 125 g ai/ha): 100
pest or weed control at 16 g/ha (velvetleaf; [10]): 100%
pest or weed control at 62 g/ha (velvetleaf; [11]): 100%
pest or weed control at 125 g/ha (velvetleaf; [12]): 100%
pest or weed control at 16 g/ha (johnsongrass; [10]): 30%
pest or weed control at 62 g/ha (johnsongrass; [11]): 100%
pest or weed control at 125 g/ha (johnsongrass; [12]): 100%
pest or weed control at 16 g/ha (blackgrass; 16 g ai/ha, preemergence, scale 0 to 100 (0 no effect, 100 complete control), read-out: Blackgrass plant response rating): 80%
pest or weed control at 62 g/ha (blackgrass; 62 g ai/ha, preemergence, scale 0 (no effect) to 100 (complete control), read-out: Blackgrass plant response rating): 95%
pest or weed control at 125 g/ha (blackgrass; 125 g ai/ha, preemergence, scale 0 (no effect) to 100 (complete control), read-out: Blackgrass plant response rating): 95%
pest or weed control at 31 g/ha (blackgrass; Preemergence, 31 g ai/ha, scale 0 to 100, 0 no effect, 100 complete control, read-out: Plant response rating, Blackgrass): 95%
plant injury at 16 g/ha (soybean; [10]): 65%
plant injury at 62 g/ha (soybean; [11]): 90%
plant injury at 125 g/ha (soybean; [12]): 98%
Plant response rating, Ragweed (ragweed [5]; [13]): 90
Plant response rating, Ragweed (ragweed [5]; 125 g ai/ha): 100
pest or weed control at 16 g/ha (barnyardgrass; 16 g ai/ha, preemergence, scale 0 to 100 (0 no effect, 100 complete control), read-out: Barnyardgrass plant response rating): 80%
pest or weed control at 62 g/ha (barnyardgrass; 62 g ai/ha, preemergence, scale 0 (no effect) to 100 (complete control), read-out: Barnyardgrass plant response rating): 100%
pest or weed control at 125 g/ha (barnyardgrass; 125 g ai/ha, preemergence, scale 0 (no effect) to 100 (complete control), read-out: Barnyardgrass plant response rating): 100%
pest or weed control at 31 g/ha (barnyardgrass; Preemergence, 31 g ai/ha, scale 0 to 100, 0 no effect, 100 complete control, read-out: Plant response rating, Barnyardgrass): 100%
pest or weed control at 16 g/ha (ragweed [6]; [10]): 85%
pest or weed control at 62 g/ha (ragweed [6]; [11]): 100%
pest or weed control at 125 g/ha (ragweed [6]; [12]): 100%
pest or weed control at 16 g/ha (waterhemp; [10]): 100%
pest or weed control at 62 g/ha (waterhemp; [11]): 100%
pest or weed control at 125 g/ha (waterhemp; [12]): 100%
pest or weed control at 16 g/ha (Italian ryegrass [7]; [10]): 40%
pest or weed control at 62 g/ha (Italian ryegrass [7]; [11]): 75%
pest or weed control at 125 g/ha (Italian ryegrass [7]; [12]): 100%
Plant response rating, Galium (galium; [8]): 100
Galium plant response rating (galium; [9]): 100
plant injury at 16 g/ha (wheat, winter; [10]): 0%
plant injury at 62 g/ha (wheat, winter; [11]): 40%
plant injury at 125 g/ha (wheat, winter; [12]): 60%
